From patent publication US20230139171A1 (SITA Information Networking Computing UK Limited, priority 2019, published 2023) come the findings set out here.

Format in all cases: cell-based
In one test the target is T1, human TLR8 (Homo sapiens, UniProt Q9NR97).
T1 construct: host or cells: HEK-Blue cells
T1 sequence (Q9NR97 27-1041): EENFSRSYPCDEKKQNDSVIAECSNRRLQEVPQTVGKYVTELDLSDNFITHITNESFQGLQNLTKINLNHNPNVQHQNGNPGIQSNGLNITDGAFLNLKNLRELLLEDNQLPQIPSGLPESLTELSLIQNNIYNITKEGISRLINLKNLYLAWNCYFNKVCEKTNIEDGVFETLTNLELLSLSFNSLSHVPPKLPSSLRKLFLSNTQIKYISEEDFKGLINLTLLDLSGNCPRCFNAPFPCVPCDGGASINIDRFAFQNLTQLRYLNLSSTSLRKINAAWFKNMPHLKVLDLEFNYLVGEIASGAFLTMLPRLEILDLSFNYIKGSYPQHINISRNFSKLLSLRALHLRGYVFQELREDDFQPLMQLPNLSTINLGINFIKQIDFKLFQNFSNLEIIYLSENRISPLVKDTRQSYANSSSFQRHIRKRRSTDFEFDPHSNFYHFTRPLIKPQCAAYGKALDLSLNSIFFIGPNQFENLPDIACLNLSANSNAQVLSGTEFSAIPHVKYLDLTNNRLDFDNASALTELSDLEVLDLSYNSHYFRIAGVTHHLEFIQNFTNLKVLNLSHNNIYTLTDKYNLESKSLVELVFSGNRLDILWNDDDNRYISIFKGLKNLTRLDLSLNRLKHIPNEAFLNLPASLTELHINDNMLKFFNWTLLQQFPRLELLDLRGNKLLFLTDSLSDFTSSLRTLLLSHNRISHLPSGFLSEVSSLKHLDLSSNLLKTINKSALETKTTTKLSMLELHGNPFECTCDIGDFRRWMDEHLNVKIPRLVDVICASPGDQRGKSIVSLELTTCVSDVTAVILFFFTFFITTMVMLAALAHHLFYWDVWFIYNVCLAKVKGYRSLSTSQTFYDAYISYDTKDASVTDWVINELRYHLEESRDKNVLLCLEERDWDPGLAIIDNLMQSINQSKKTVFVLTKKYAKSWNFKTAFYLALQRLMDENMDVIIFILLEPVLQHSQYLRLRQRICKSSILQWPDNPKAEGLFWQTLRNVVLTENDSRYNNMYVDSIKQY
The test can be described thus: TLR8 inhibition reporter assay (HEK-Blue cells, SEAP reporter, R848 stimulation). The conditions noted are these: HEK-Blue cells overexpressing human TLR8, SEAP reporter, R848 15.9 μM; read-out: TLR8 IC50. The method in brief: (§1)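 Agonists used: gardiquimod 7.5 μM (TLR7), R848 15.9 μM (TLR8), ODN2006 5 nM (TLR9), added after 30 min room-temperature compound pre-treatment (0.05 nM–50 μM) of receptor-overexpressing HEK-Blue cells. SEAP reporter (NF-κB/AP-1 driven) read after 22 h at 37 °C; inhibition scaled between agonist+DMSO and reference-inhibitor wells.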
Background: A reporter such as luciferase makes a cellular process visible.

The target of another test is T2, human TLR9 (Homo sapiens, UniProt Q9NR96).
T2 construct: host or cells: HEK-Blue cells
T2 sequence (Q9NR96 26-1032): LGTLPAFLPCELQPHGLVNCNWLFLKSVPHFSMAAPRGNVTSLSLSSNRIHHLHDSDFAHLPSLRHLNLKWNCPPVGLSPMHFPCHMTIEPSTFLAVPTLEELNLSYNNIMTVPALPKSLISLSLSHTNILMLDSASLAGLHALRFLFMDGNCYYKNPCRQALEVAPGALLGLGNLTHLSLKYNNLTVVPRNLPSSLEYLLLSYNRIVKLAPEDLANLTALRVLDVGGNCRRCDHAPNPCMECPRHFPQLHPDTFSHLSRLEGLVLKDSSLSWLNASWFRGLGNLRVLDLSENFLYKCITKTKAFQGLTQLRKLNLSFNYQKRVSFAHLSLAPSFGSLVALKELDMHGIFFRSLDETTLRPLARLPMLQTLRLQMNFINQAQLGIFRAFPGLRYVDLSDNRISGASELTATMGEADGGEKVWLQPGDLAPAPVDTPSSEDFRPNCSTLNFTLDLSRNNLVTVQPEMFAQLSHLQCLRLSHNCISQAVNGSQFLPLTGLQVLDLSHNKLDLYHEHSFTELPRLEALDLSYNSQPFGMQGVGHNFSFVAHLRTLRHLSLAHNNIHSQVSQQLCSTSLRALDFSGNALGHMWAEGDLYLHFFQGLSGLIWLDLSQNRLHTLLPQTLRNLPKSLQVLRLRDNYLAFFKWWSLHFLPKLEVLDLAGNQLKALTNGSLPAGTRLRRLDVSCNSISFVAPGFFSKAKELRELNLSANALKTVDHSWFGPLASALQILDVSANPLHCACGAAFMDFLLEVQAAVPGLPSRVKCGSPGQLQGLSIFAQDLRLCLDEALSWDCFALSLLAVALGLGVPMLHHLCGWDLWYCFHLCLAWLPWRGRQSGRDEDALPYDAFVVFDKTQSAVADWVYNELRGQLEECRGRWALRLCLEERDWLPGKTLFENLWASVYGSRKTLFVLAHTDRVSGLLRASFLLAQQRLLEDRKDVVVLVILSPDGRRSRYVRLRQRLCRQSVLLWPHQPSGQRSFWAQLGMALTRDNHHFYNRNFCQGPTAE
The test can be described thus: TLR9 inhibition reporter assay (HEK-Blue cells, SEAP reporter, ODN2006 stimulation). The conditions noted are these: HEK-Blue cells overexpressing human TLR9, SEAP reporter, ODN2006 5 nM. The method in brief: as §1

The next test addresses T3, human TLR7 (Homo sapiens, UniProt Q9NYK1).
T3 construct: host or cells: HEK-Blue cells
T3 sequence (Q9NYK1 27-1049): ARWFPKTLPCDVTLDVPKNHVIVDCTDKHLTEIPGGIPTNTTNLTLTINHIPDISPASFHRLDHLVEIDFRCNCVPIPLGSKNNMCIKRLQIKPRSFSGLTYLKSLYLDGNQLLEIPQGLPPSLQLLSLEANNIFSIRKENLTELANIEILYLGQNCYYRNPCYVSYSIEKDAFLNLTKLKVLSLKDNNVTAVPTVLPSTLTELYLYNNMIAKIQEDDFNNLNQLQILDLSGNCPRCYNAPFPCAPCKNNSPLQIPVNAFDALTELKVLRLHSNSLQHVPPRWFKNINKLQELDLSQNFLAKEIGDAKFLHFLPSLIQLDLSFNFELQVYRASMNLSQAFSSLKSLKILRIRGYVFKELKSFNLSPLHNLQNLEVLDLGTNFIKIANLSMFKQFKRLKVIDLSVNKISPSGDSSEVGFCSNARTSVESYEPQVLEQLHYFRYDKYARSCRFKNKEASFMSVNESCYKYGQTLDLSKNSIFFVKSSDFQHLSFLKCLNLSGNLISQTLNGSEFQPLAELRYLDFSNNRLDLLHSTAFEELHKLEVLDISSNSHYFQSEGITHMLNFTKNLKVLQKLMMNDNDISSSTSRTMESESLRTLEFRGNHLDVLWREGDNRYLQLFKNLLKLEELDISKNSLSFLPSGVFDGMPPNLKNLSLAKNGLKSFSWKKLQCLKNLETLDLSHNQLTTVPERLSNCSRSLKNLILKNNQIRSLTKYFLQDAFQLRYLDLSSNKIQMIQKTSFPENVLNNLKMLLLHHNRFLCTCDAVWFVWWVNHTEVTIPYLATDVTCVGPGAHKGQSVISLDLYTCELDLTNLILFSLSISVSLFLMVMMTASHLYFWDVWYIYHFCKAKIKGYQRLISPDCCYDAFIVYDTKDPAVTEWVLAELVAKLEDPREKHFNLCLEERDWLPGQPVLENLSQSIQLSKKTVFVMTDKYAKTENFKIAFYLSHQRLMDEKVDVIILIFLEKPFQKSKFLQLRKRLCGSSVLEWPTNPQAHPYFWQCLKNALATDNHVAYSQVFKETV
The test can be described thus: TLR7 inhibition reporter assay (HEK-Blue cells, SEAP reporter, gardiquimod stimulation). Conditions: HEK-Blue cells overexpressing human TLR7, SEAP reporter, gardiquimod 7.5 μM; read-out: TLR7 IC50. The method in brief:
as §1

In general, pIC50 refers to the negative decadic logarithm of the IC50, by convention in mol/L.

pIC50: −log10 of the molar value.

As for `CC(C)c1c(-c2cn(C)c3ncccc23)[nH]c2sc(C3CCC(NC4COC4)CC3)nc12` (single isomer, unassigned) [Example 179, N-(4-(6-isopropyl-5-(1-methyl-1H-pyrrolo[2,3-b]pyridin-3-yl)-4H-pyrrolo[3,2-d]thiazol-2-yl)cyclohexyl)oxetan-3-amine], the pIC50 on human TLR8 is 7.87; against human TLR9 it was 5.14; on human TLR7, 8.01.

With `Cc1c(-c2[nH]c3sc(C4CCC(NCC(C)(C)O)CC4)nc3c2C(C)C)cn2ncnc2c1C` (single isomer, unassigned) [Example 197, 1-((4-(5-(7,8-dimethyl-[1,2,4]triazolo[1,5-a]pyridin-6-yl)-6-isopropyl-4H-pyrrolo[3,2-d]thiazol-2-yl)cyclohexyl)amino)-2-methylpropan-2-ol], the results for the pIC50 on human TLR8, at human TLR9 and on human TLR7 were 8.68, 4.88 and 8.27, respectively.

For the molecule `COc1cc(-c2[nH]c3sc(C4CCC(NC5(C#N)CC5)CC4)nc3c2C(C)C)cn2ncnc12` (stereo not drawn) [Example 106, 1-((4-(6-isopropyl-5-(8-methoxy-[1,2,4]triazolo[1,5-a]pyridin-6-yl)-4H-pyrrolo[3,2-d]thiazol-2-yl)cyclohexyl)amino)cyclopropane-1-carbonitrile], the pIC50 at human TLR8 is 7.04; against human TLR9 it was 4.84; at human TLR7, 8.65.

In the case of `Cc1cc(-c2[nH]c3sc(C4CCN(C(C)C)CC4)nc3c2C(C)C)cc(C)n1` [Example 25, 5-(2,6-dimethylpyridin-4-yl)-6-isopropyl-2-(1-isopropylpiperidin-4-yl)-4H-pyrrolo[3,2-d]thiazole], the pIC50 was 7.99 at human TLR8, 6.35 against human TLR9 and 7.59 on human TLR7.

Take `COc1cc(-c2[nH]c3sc(C4CCC(N5CCNC(=O)C5)CC4)nc3c2C)cn2ncnc12` (single isomer, unassigned) [Example 275, 4-(4-(5-(8-methoxy-[1,2,4]triazolo[1,5-a]pyridin-6-yl)-6-methyl-4H-pyrrolo[3,2-d]thiazol-2-yl)cyclohexyl)piperazin-2-one]: the pIC50 is 6.29 on human TLR8, less than 4.30 at human TLR9 and 6.38 on human TLR7.

Regarding `CNC(=O)CN1C[C@H](C)N(c2nc3c(C(C)C)c(-c4cn5ncnc5c(C)c4C)[nH]c3s2)C[C@H]1C` [Example 336, 2-((2R,5S)-4-(5-(7,8-dimethyl-[1,2,4]triazolo[1,5-a]pyridin-6-yl)-6-isopropyl-4H-pyrrolo[3,2-d]thiazol-2-yl)-2,5-dimethylpiperazin-1-yl)-N-methylacetamide], the results for the pIC50 on human TLR8, at human TLR9 and on human TLR7 were 7.40, 4.42 and 7.87, respectively.

Regarding `Cc1c(-c2[nH]c3sc(N4CCN(C(=O)CN(C)C)C[C@@H]4C)nc3c2C(C)C)cn2ncnc2c1C` [Example 346, (S)-1-(4-(5-(7,8-dimethyl-[1,2,4]triazolo[1,5-a]pyridin-6-yl)-6-isopropyl-4H-pyrrolo[3,2-d]thiazol-2-yl)-3-methylpiperazin-1-yl)-2-(dimethylamino)ethan-1-one], the pIC50 on human TLR8 is 8.10; at human TLR9, 4.72; at human TLR7, 8.20.

Turning to `CC(C)c1c(-c2ccc(C#N)c3ncccc23)[nH]c2sc(C3CCN(C(=O)CN(C)C)CC3)nc12` [Example 39, 5-(2-(1-(dimethylglycyl)piperidin-4-yl)-6-isopropyl-4H-pyrrolo[3,2-d]thiazol-5-yl)quinoline-8-carbonitrile], the values for the pIC50 at human TLR8, on human TLR9 and at human TLR7 were 7.59, 5.45 and 8.08, respectively.

Regarding `Cc1c(-c2[nH]c3sc(C4CCC(NCC(C)(C)C)CC4)nc3c2C(C)C)cn2ncnc2c1C` (single isomer, unassigned) [Example 199, 4-(5-(7,8-dimethyl-[1,2,4]triazolo[1,5-a]pyridin-6-yl)-6-isopropyl-4H-pyrrolo[3,2-d]thiazol-2-yl)-N-neopentylcyclohexan-1-amine], the negative logarithm of the IC50 (pIC50) at human TLR8 was 8.66; against human TLR9, 5.53; at human TLR7 it was 8.30.

Consider `Cc1c(-c2[nH]c3sc(C4CCC(N(C)CC(C)C)CC4)nc3c2C(C)C)cn2ncnc2c1C` (single isomer, unassigned) [Example 228, 4-(5-(7,8-dimethyl-[1,2,4]triazolo[1,5-a]pyridin-6-yl)-6-isopropyl-4H-pyrrolo[3,2-d]thiazol-2-yl)-N-isobutyl-N-methylcyclohexan-1-amine], for which the pIC50 is 8.84 on human TLR8, 5.05 against human TLR9 and 8.66 at human TLR7.

With `Cc1cc(-c2[nH]c3sc(C4CCN(C(=O)CN(C)C)CC4)nc3c2C(C)C)cc(C)n1` [Example 28, 2-(dimethylamino)-1-(4-(5-(2,6-dimethylpyridin-4-yl)-6-isopropyl-4H-pyrrolo[3,2-d]thiazol-2-yl)piperidin-1-yl)ethan-1-one], the pIC50 is 6.58 on human TLR8, 6.19 on human TLR9 and 7.41 at human TLR7.
